Results as given in patent US20220054477A1, “INDUCTION OF SUSTAINED LOCAL INFLAMMATION” (Ascendis Pharma Oncology Division A/S, priority 2019, published 2022).
Marks after values point to notes of the source that are not given here.

Legend:
IL-6 = test: In vivo cytokine induction, plasma cytokine levels: IL-6 (Example 12); set-up: species or system BALB/C mice; details: single intratumoral dose
Protocol: Mice were subcutaneously implanted with 3×10^5 CT26 tumor cells in the left and right flanks. […] Hydrogels were administered as suspensions in PBST buffer. K2 EDTA-preserved blood samples were collected by retro-orbital bleed at various time points following drug administration and plasma was isolated following centrifugation at 2000×g for 5 minutes at 4° C. and frozen. Plasma samples were stored at −80° C. Plasma was thawed and undiluted samples were assessed for cytokine levels using the 36-Plex Mouse ProcartaPlex™ Cytokine Panel 1A (ThermoFisher Scientific) following manufacturer's recommendations. Cytokines were measured on the Bio-Plex 200 (BioRad) following kit instructions. For sample values below or at the lower limit of quantitation (LLOQ) of the assay, a value of 0.01 pg/mL was instead used in determining mean cytokine concentrations.

CD4+ T cells = test: Flow cytometry of tumor draining lymph nodes: frequency of CD4+ T cells of CD3+ T cells (Example 15); format: in vivo, BALB/C mice; details: 7 days after randomization
Protocol: Hydrogels were administered as suspension in PTP buffer. Some cohorts were further treated with 20 μg human IL-2 (Peprotech, Rocky Hill, N.J.), intraperitoneally (I.P.), twice a day for 5 days. Mice were sacrificed 7 days after randomization (D0). Following sacrifice, tumor draining lymph nodes were isolated from both flanks and were dissociated mechanically to generate a single cell suspension at a cell concentration of 1×10^6 cells per sample. Cell suspensions were centrifuged at 300 g for 5 minutes. Supernatants were discarded and cells were resuspended in FACS buffer with 1 μg/ml Fc-Block and incubated at 4° C. for 10 minutes in the dark. Surface marker antibody mixtures (antibody concentration: 10 μg/mL) in FACS buffer were added to each sample and samples were incubated in the dark at 4° C. for 30 minutes. Cells were centrifuged at 300 g for 5 minutes and supernatants were discarded. Cells were washed and then resuspended with FACS buffer before cytometer collection.
After collection, FACS data was analyzed using FlowJo Version 10.6.1. Compensation was digitally adjusted using single antibody-stained beads. Samples with less than 90% viability, as determined by LiveDead cell staining, were excluded from the analysis. […]

Ccl4 = test: PBMC gene expression (qPCR, 6 hours post-treatment): Ccl4 (Example 17); format: in vivo, BALB/C mice
Protocol: Hydrogels were administered as suspensions in PTP buffer. […] Tumors were excised, weighed and snap frozen.
For PBMC isolations, approximately 600 μl of whole blood was collected via cardiac puncture. The collected whole blood from each individual mouse was diluted with a 1:1 ratio of pre-warmed PBS supplemented with 2% Fetal Bovine Serum (FBS). Then an equal volume of Histopaque-1083 was added to a new sterile 15 mL conical tube, where the diluted whole blood was layered over the Histopaque-1083. The mixture was then centrifuged at 400 g for 30 minutes. […]
Lysates from untreated control samples and 6 hour treated samples were thawed and RNA was isolated using the RNeasy Mini Kit (QIAGEN) following manufacturer's recommendations. […] RNA concentrations were measured using a NanoDrop (ThermoFisher) and then adjusted to […] with RNase-free water. RNA quality was assessed using a NanoDrop (ThermoFisher). […] 200 ng of cDNA was used for quantitative PCR using the RT^2 SYBR Green ROX qPCR Master mix (2×) kit (QIAGEN) following manufacturer's recommendations. […]
Cycle thresholds (CT) were collected using a 384-well platform ABI-7900H real-time qPCR system (Applied Biosystems). […] 2^ΔΔCT values were calculated with the following formula: […]
For each gene, 3 technical replicates were analyzed per biological replicate. Undetermined technical replicate CT values were recorded as zero ΔCT values. […]

Substance: Resiquimod [Compound 4]
- IL-6 plasma level, Mean (IL-6; 1 h post-treatment): 3618.87†, ‡ pg/mL
- IL-6 plasma level, Mean (IL-6; 3 h post-treatment): 1739.75†, ‡ pg/mL
- IL-6 plasma level, Mean (IL-6; 6 h post-treatment): 88.59 pg/mL
- IL-6 plasma level, Mean (IL-6; 10 h post-treatment): 154.51 pg/mL
- IL-6 plasma level, Mean (IL-6; 24 h post-treatment): 44.71 pg/mL
- Frequency of CD4+ T cells of CD3+ T cells, Mean (CD4+ T cells; injected right flank tumor): 69.1%
- Frequency of CD4+ T cells of CD3+ T cells, Mean (CD4+ T cells; uninjected left flank tumor): 69.25%
- Ccl4 Mean (2^ΔΔCT) (Ccl4): 1.31
- Ccl4 Fold change (4/13i) (Ccl4; ratio of 4 to 13i): 1.74
